Paper doi:10.1101/125930v1 (bioRxiv, 2017)

Tested on: purified E. coli protein synthesis system (PURE)
Assay: Myc-peptide translation assay
Type: biochemical
Settings: MALDI-TOF, assuming similar ionization properties

Row | SMILES | consecutive incorporations (in the absence of EF-P) | consecutive incorporations (with 8 μM EF-P)
1 | N[C@H](Cc1ccc(O)cc1)C(=O)O [^DTyr, D-tyrosine] | ≤ 2 | ≤ 5
2 | N[C@@H](Cc1ccc(O)cc1)C(=O)O [^LTyr, L-tyrosine] | up to 3 | up to 7
